The values below come from patent publication US20030087316A1, “Diagnostic markers of liver dysfunction” (priority 2001, published 2003).

The target of one assay is T1, thrombin (Homo sapiens, UniProt P00734).
T1 construct: purchased Calbiochem-Novabiochem Corp (La Jolla, Calif.)
Kind of assay: Peptidase (amidolytic) activity of purified thrombin, chromogenic substrate, OD 405 nm. It counts as biochemical. The note with it: Table 2, thrombin 100 nM, substrate AGLTR-pNA, 60 min at 4° C. with LBTI 1 mg/ml, SBTI I mg/ml, aprotinin 0.075 mg/ml, benzamidine 50 mM or Futhan 0.1 mg/ml.

A further assay has as its target T2, plasma kallikrein (Homo sapiens, UniProt P03952).
T2 construct: The light chain of kallikrein contains the enzymatic domain; purchased Calbiochem-Novabiochem Corp (La Jolla, Calif.)
The experiment in a line: Peptidase (amidolytic) activity of purified plasma kallikrein, chromogenic substrate, OD 405 nm. It counts as biochemical. The note with it: Table 2, plasma kallikrein 20 nM, substrate AGLTR-pNA, 60 min at 4° C. with LBTI 1 mg/ml, SBTI I mg/ml, aprotinin 0.075 mg/ml, benzamidine 50 mM or Futhan 0.1 mg/ml. Here is the method: (§1) The peptidase activity in plasma samples or of the purified enzymes were routinely determined at 37° C. in a 96-well plate. Each well contained 0.5 mM substrate in 100 μl of Tris-buffered saline (TBS)-EDTA buffer (50 mM Tris/150 mM NaCl/10 mM EDTA, pH 7.8) and the reaction was monitored using a microplate reader (Titertek Multiscan, Labsystems, Needham Heights, Mass.).
(§2) […] EDTA plasma samples from LTR were diluted 10 or 20-fold with TBS-EDTA. The chromogenic substrate AGLTR-pNA was used for all enzymes and LTR samples except C1s where the substrate S2288 was used. Based on the initial rate of increase in OD at 405 nm, the residual free enzyme level was calculated and expressed as a percentage of total activity without inhibitor added.
(§3) Ten-fold diluted normal EDTA plasma was added to each enzyme. […] LTR samples were 10 or 20-fold diluted with TBS-EDTA. The chromogenic substrate AGLTR-pNA was used for all enzymes and LTP samples except C1s where the substrate S2288 was used. Based on the initial rate of increase in OD at 405 nm, the residual free enzyme was calculated and expressed as a percentage of total activity determined without inhibitor added.

For the next assay, the target named is T3, plasmin (Homo sapiens, UniProt P00747).
T3 construct: purchased Calbiochem-Novabiochem Corp (La Jolla, Calif.)
The experiment in a line: Peptidase (amidolytic) activity of purified plasmin, chromogenic substrate, OD 405 nm. In kind it is biochemical. The note with it: Table 2, plasmin 100 nM, substrate AGLTR-pNA, 60 min at 4° C. with LBTI 1 mg/ml, SBTI I mg/ml, aprotinin 0.075 mg/ml, benzamidine 50 mM or Futhan 0.1 mg/ml. How it is done: as §1
(§4) The enzymes C1s (100 nM), plasm in (100 nM), thrombin (100 nM), plasma kallikrein (20 nM), β-FXIIa (100 nM), trypsin (16 nM) or LTR EDTA plasma samples were incubated for 60 min at 4° C. with TBS-EDTA buffer containing either LBTI (1 mg/ml), SBTI (I mg/ml), aprotinin (0.075 mg/ml), benzamidine (50 mM), or Futhan (0.1 mg/ml), before mixing with the substrate. EDTA plasma samples from LTR were diluted 10 or 20-fold with TBS-EDTA. The chromogenic substrate AGLTR-pNA was used for all enzymes and LTR samples except C1s where the substrate S2288 was used. Based on the initial rate of increase in OD at 405 nm, the residual free enzyme level was calculated and expressed as a percentage of total activity without inhibitor added.
(§5) Ten-fold diluted normal EDTA plasma was added to each enzyme. The enzymes C1s (100 nM), plasmin (100 nM), thrombin (100 nM), plasma kallikrein (20 nM), β-FXIIa (100 nM), trypsin (16 nM) or LTR EDTA plasma samples were incubated for 60 min at 4° C. with TBS-EDTA buffer containing either C1INH (40 μg/ml), bdellin (50 μg/ml), hirudin (50 U/ml), PPACK 11(10 μM), or CTI (100 μg/ml), before adding the substrate. LTR samples were 10 or 20-fold diluted with TBS-EDTA. The chromogenic substrate AGLTR-pNA was used for all enzymes and LTP samples except C1s where the substrate S2288 was used. Based on the initial rate of increase in OD at 405 nm, the residual free enzyme was calculated and expressed as a percentage of total activity determined without inhibitor added.

In a further assay the target is T4, C1s (Homo sapiens, UniProt P09871).
T4 construct: purchased Advanced Research Technologies (San Diego, Calif.)
T4 sequence (P09871 438-688 limits assumed): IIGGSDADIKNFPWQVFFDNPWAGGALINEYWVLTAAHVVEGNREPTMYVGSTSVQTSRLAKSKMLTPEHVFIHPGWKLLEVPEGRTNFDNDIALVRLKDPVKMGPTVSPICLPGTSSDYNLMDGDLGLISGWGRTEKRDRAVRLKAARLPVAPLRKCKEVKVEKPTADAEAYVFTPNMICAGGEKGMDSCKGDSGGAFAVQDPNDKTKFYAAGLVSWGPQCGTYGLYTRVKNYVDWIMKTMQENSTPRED
T4 sequence (P09871 16-437 partner limits assumed): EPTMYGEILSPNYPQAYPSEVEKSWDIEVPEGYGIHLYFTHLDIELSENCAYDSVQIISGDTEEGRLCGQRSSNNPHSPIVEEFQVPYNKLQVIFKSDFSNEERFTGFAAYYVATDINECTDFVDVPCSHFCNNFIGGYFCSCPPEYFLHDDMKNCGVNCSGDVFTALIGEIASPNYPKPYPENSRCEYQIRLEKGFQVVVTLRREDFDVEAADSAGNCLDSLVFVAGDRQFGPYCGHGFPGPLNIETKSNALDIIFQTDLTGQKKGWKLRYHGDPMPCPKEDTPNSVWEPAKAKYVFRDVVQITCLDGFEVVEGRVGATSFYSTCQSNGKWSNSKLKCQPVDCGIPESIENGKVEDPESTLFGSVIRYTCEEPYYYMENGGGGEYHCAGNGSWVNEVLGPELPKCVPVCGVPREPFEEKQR
Kind of assay: Peptidase (amidolytic) activity of purified C1s, chromogenic substrate, 96-well plate, OD 405 nm. The note with it: Table 2, C1s 100 nM, substrate S2288, 60 min at 4° C. with LBTI 1 mg/ml, SBTI I mg/ml, aprotinin 0.075 mg/ml, benzamidine 50 mM or Futhan 0.1 mg/ml, % of total activity without inhibitor. In kind it is biochemical. Here is the method: as §1, §4, §5

The subject of the next assay is trypsin. The experiment in a line: Peptidase (amidolytic) activity of purified trypsin, chromogenic substrate, OD 405 nm. It counts as biochemical. The note with it: Table 2; trypsin 16 nM, substrate AGLTR-pNA; 60 min at 4° C. with LBTI 1 mg/ml, SBTI I mg/ml, aprotinin 0.075 mg/ml, benzamidine 50 mM or Futhan 0.1 mg/ml. Here is the method: as §1, §4
For assay [1], the system named is all of the enzymes examined. The experiment in a line: General serine proteinase inhibitors on selected proteinases (summary over the enzymes). It counts as biochemical. The note with it: Table 2; benzamidine 50 mM, Futhan 0.1 mg/ml. Here is the method: as §1, §4
In another assay the target is T5, β-Factor XIIa (β-FXIIa) (Homo sapiens, UniProt P00748).
T5 construct: β-Factor XIIa (β-FXIIa) was kindly provided by Dr. Mary J. Heeb; gift of Dr. Mary J. Heeb, The Scripps Research Institute
Kind of assay: Peptidase (amidolytic) activity of purified β-FXIIa, chromogenic substrate, OD 405 nm. In kind it is biochemical. The note with it: Table 2, β-FXIIa 100 nM, substrate AGLTR-pNA, 60 min at 4° C. with LBTI 1 mg/ml, SBTI I mg/ml, aprotinin 0.075 mg/ml, benzamidine 50 mM or Futhan 0.1 mg/ml. Here is the method: as §1, §2, §3

The subject of assay [2] is proteinase(s) in EDTA plasma from LTR (kallikrein-like peptidase). The experiment in a line: Peptidase activity in EDTA plasma from liver transplant recipients (LTR), chromogenic substrate, OD 405 nm. In kind it is biochemical, human. The note with it: Table 2, substrate AGLTR-pNA, 60 min at 4° C. with LBTI 1 mg/ml, SBTI I mg/ml, aprotinin 0.075 mg/ml, benzamidine 50 mM or Futhan 0.1 mg/ml; for % Residual activity, LTR 1: LTR 1 EDTA plasma diluted 10 or 20-fold; for % Residual activity, LTR 2: LTR 2 EDTA plasma diluted 10 or 20-fold; for % Residual activity, LTR 3: LTR 3 EDTA plasma diluted 10 or 20-fold. How it is done:
Blood samples were drawn into 5 ml EDTA tubes (Venoject; Terumo Corp., Elkton, Md.). The plasma was collected immediately by centrifugation at 2,000×g for 15 min at 4° C. The plasma samples were either processed immediately for analysis or stored at −70° C. Frozen samples were thawed at 4° C. prior to analysis.
as §1, §4, §5

Assay [3] deals with complement (three known pathways). The note with it: defined levels of Futhan in combination with EDTA; cited from earlier work.

T2 sequence (P03952 391-638 limits assumed): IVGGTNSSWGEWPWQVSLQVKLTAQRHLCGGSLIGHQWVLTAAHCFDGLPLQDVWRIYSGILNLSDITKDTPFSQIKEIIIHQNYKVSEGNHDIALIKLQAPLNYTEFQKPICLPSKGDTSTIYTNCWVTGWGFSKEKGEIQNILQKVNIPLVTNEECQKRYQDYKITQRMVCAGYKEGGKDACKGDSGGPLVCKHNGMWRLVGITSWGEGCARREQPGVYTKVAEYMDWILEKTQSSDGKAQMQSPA
T2 sequence (P03952 20-390 partner limits assumed): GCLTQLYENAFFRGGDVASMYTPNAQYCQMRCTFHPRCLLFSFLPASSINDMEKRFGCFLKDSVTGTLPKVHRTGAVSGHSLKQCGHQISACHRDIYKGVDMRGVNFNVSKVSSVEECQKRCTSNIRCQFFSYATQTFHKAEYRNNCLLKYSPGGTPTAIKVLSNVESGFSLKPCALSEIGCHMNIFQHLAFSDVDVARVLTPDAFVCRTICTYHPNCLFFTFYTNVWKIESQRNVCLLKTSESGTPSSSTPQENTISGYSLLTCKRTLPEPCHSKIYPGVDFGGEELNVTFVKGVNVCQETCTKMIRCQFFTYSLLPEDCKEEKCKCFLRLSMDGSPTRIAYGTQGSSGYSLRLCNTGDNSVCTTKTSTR
T5 sequence (P00748 373-615 limits assumed, other chains not shown): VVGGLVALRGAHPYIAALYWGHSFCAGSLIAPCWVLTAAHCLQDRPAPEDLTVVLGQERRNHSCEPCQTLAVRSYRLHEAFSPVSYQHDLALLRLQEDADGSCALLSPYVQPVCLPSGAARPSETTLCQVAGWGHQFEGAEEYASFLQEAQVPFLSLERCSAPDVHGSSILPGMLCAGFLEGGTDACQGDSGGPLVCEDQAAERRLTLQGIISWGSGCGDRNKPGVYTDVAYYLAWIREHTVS
T3 sequence (P00747 581-810 limits assumed, species assumed): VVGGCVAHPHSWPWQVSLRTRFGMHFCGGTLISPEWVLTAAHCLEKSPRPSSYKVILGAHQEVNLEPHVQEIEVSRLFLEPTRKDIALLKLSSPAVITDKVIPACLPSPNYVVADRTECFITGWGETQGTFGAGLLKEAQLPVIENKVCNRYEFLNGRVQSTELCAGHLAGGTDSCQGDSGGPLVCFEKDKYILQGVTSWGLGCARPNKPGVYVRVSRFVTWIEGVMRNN
T3 sequence (P00747 97-580 partner limits assumed, species assumed): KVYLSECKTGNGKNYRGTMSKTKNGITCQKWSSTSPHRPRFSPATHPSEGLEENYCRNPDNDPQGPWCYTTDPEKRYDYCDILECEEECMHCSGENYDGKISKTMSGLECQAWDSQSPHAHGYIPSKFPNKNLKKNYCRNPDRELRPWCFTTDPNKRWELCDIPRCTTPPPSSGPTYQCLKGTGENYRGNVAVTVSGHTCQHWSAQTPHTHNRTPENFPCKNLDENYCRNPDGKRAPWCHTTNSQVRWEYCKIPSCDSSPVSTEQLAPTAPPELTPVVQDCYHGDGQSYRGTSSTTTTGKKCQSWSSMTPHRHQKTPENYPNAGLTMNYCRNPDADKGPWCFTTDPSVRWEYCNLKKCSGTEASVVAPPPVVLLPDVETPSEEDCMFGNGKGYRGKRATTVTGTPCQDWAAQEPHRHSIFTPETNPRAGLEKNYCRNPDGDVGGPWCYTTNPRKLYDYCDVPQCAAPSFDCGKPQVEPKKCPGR

Regarding `N=C(N)c1ccccc1` [Benzamidine, benzamidine], the “% Residual activity, Thrombin” value at thrombin is listed as 1.6%. In addition, the “% Residual activity, Plasma Kallikrein” value on plasma kallikrein came to 2.0%. The “% Residual activity, Plasmin” value on plasmin was 3.9%. For the same compound, the “% Residual activity, C1s” value at C1s came out at 6.6%. Moreover, in the assay on trypsin, the “% Residual activity, Trypsin” value is 5.8%. Besides, the “Inhibition of all of the enzymes examined, in words” value in assay [1] was “very efficient inhibitors for all of the enzymes examined”. At β-Factor XIIa (β-FXIIa), the “% Residual activity, β-FXIIa” value is 10.9%. Also, in [2], the “% Residual activity, LTR 1” value came to 0.5%; the “% Residual activity, LTR 2” value is −0.3%; the “% Residual activity, LTR 3” value is given as 1.5%.

Consider `N=C(N)c1ccc2cc(OC(=O)c3ccc(N=C(N)N)cc3)ccc2c1` [Futhan, nafamostat mesilate], for which the remaining activity at 100 µg/mL was 0.8% on thrombin (read-out: % Residual activity, Thrombin); 1.1% on plasma kallikrein (read-out: % Residual activity, Plasma Kallikrein); -1.5% at plasmin (read-out: % Residual activity, Plasmin); 4.6% at C1s (read-out: % Residual activity, C1s); 3.8% at β-Factor XIIa (β-FXIIa) (read-out: % Residual activity, β-FXIIa). In the assay with trypsin, the “% Residual activity, Trypsin” value is listed as −0.5%. Besides, the “Prevention of in vitro activation of complement in plasma samples, in words” value in assay [3] is on record as “can prevent the in vitro activation of complement by any of the three known pathways”. The “Inhibition of all of the enzymes examined, in words” value in assay [1] was “very efficient inhibitors for all of the enzymes examined”. Further, the “% Residual activity, LTR 1” value in assay [2] is reported as −0.7%. The “% Residual activity, LTR 2” value in assay [2] is given as 0.2%. In [2], the “% Residual activity, LTR 3” value is −1.1%.
